Where two headings read alike, the source gives them in different places. Values belong to the molecule of their own block, whether it stands above or below them.
Tests used:
[1] = Canine pharmacokinetic evaluation; type: in vivo; settings: Beagle dogs
From the text: 1. Animal Administration and Sample Collection
2. Sample Analysis Method
3. Data Processing Method

[2] = Rat pharmacokinetic evaluation; type: in vivo, SD male rats; settings: male, Sprague-Dawley, plasma, SD rat
Experimental: Experimental Example 4: Rat Pharmacokinetic Evaluation of the Compounds of the Invention
Aim: The in vivo pharmacokinetic parameters of the compounds in SD male rats (purchased from Beijing Vital River Animal Technology Co., Ltd.) were evaluated and bioavailability of the compounds was examined.
Animal Administration and Sample Collection:
The solution of compounds 65, 90, 107, 158 was intragastrically administered to SD rat at a dose of 5.0 mg/kg.
The experimental compound 76 was dissolved in 30% DMF+30% PEG400+40% saline to prepare a solution. The solution of compound 76 was intragastrically administered to SD rat at a dose of 5.0 mg/kg.
The experimental compound 76 was dissolved in 30% DMF+30% PEG400+40% saline to prepare a solution.
The experimental compounds 84 and 96 were dissolved in 5% DMSO+10% PEG400+85% (28% HP-β-CD) saline to prepare a solution. The solution of compounds 84 and 96 was intragastrically administered to SD rat at a dose of 5.0 mg/kg.
The experimental compounds 84 and 96 were dissolved in 5% DMSO+10% PEG400+85% (28% HP-β-CD) saline to prepare a solution.
The animals were fixed. The tail was heated with a water bath at 10 min before each time point. About 100 μL of blood from tail vein was collected, and then placed in an anti-coagulation tube containing EDTA-K2 after collection. Blood samples were centrifuged at 8000 rpm at 4° C. for 6 min to obtain plasma samples.
The concentration of test sample was output using Analyst 1.6.1 from AB SCIEX.

PDE1A1 Enzyme = PDE1A1 Enzyme (Homo sapiens (Human), UniProt P54750); assay: PDE enzymology evaluation, PDE1A1; type: biochemical
Experimental: (§1) Experimental Example 5: PDE Enzymology Evaluation Method
(§2) Test substance: Compounds of the invention, prepared by the corresponding examples of the invention
(§3) 1. Experimental materials and instruments
PDE1A1 Enzyme (BPS, Cat. No. 60010)
(§4) 2. Experimental procedure
(§5) Preparation of the compounds: the compounds were prepared into 10 mM compound stock solution in DMSO for long-term storage. The obtained compound stock solution was diluted in 100 times with DMSO to obtain 100 μM compound working mother solution, and then the compound working mother solution was diluted in 3 times with DMSO to obtain 10 concentration gradients of diluted compound mother liquor (100×).
(§6) Incubation with the compounds: A very small amount of liquid pipetting system Echo was used to pipette the diluted compound mother liquor into a 384-well plate. 200 nL diluted compound mother liquor and 10 μL PDE1A1, PDE3A, PDE5A1 and PDE8A1 enzyme solution were added to each compound well. […] In the maximum reading hole (Max), the compound was replaced by solvent. In the minimum reading hole (Min), the compound and enzyme solution were replaced by solvent.
(§7) Detection: Fluorescence readings (F) at 480 nm/535 nm were detected using a microplate reader.
(§8) Calculation: The inhibition rate was calculated as follows, and IC50 was fitted using GraphPad Prism 5.0: […]

PDE3A Enzyme = PDE3A Enzyme (Homo sapiens (Human), UniProt Q14432); assay: PDE enzymology evaluation, PDE3A; type: biochemical
Experimental: as §1, §2, §3
PDE3A Enzyme (BPS, Cat. No. 60030)
as §4, §5, §6, §7, §8

PDE5A1 Enzyme = PDE5A1 Enzyme (Homo sapiens (Human), UniProt O76074); assay: PDE enzymology evaluation, PDE5A1; type: biochemical
Experimental: as §1, §2, §3
PDE5A1 Enzyme (BPS, Cat. No. 60050)
as §4, §5, §6, §7, §8

PDE8A1 Enzyme = PDE8A1 Enzyme (Homo sapiens (Human), UniProt O60658); assay: PDE enzymology evaluation, PDE8A1; type: biochemical
Experimental: as §1, §2, §3
PDE8A1 Enzyme (BPS, Cat. No. 60080)
as §4, §5, §6, §7, §8

[3] = human
[4] = Rat pharmacokinetic evaluation; type: in vivo, SD male rats; settings: SD rat, intravenous bolus 1 mg/kg
in vitro = settings: human, microsomes

Sequence of PDE8A1 Enzyme (O60658 whole entry): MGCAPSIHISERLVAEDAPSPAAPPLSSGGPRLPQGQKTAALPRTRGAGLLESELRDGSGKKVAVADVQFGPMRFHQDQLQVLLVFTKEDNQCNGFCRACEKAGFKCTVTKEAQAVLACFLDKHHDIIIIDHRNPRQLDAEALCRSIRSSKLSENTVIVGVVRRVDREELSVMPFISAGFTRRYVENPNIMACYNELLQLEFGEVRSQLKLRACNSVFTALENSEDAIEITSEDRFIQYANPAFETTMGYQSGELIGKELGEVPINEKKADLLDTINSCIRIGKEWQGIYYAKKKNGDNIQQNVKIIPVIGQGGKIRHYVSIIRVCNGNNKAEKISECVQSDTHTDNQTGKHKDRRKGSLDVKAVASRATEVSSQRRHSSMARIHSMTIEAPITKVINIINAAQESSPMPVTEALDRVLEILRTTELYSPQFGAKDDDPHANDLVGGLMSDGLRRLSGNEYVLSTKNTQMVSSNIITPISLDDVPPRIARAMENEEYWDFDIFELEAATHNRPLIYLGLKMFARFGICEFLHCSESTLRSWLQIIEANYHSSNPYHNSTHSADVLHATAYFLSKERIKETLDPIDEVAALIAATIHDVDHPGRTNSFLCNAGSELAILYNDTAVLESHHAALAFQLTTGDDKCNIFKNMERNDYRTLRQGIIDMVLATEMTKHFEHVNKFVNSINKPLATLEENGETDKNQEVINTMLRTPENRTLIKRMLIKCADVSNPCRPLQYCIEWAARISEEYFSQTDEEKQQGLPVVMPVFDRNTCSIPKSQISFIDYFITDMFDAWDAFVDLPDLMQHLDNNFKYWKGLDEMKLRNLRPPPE
Sequence of PDE3A Enzyme (Q14432 whole entry): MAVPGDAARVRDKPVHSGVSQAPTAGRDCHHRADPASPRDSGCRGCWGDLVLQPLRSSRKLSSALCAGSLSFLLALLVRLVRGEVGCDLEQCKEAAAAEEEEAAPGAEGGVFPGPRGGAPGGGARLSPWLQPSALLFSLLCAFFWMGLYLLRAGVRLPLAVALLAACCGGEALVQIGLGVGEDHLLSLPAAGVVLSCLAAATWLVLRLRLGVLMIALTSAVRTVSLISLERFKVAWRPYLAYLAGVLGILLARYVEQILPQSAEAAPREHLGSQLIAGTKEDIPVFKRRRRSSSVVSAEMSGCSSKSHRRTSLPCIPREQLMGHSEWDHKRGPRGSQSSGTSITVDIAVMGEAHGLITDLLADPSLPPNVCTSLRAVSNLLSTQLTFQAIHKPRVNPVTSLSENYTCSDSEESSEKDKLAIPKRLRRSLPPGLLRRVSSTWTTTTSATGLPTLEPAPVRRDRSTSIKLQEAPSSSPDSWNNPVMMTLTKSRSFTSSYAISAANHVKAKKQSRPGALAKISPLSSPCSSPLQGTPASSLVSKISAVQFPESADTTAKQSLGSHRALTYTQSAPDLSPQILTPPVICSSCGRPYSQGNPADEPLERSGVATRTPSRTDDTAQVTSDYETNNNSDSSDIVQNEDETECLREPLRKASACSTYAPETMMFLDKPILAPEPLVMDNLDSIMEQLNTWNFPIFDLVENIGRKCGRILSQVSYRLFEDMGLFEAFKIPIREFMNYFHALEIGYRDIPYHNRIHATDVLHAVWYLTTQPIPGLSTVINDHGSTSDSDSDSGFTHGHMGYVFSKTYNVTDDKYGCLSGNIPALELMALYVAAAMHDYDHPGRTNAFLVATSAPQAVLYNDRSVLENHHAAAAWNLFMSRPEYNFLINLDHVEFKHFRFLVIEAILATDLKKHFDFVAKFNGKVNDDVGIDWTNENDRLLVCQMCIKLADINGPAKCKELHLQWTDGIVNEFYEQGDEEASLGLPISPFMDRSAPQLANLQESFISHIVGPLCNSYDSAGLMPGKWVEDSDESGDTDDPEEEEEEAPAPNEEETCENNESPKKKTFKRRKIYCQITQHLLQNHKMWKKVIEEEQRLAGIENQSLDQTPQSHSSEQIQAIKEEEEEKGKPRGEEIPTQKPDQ
Sequence of PDE1A1 Enzyme (P54750 whole entry, change not shown): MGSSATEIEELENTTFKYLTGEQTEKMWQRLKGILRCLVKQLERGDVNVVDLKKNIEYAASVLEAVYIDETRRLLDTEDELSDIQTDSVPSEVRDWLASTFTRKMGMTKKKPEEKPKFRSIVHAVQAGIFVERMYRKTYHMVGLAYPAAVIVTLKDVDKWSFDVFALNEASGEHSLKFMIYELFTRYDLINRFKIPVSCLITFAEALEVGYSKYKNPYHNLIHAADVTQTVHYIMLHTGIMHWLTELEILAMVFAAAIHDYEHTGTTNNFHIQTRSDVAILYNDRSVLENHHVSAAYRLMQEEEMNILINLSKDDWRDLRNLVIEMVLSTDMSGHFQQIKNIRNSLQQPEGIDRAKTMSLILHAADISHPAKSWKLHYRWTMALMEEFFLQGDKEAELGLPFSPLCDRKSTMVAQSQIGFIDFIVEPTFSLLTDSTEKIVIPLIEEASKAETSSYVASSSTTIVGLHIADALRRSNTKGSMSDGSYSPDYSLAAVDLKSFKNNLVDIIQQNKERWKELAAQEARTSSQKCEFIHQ

SMILES: N#Cc1c(N2CCC3(CC2)CC3)c2ccncc2[nH]c1=O [Compound 25, 2-oxo-4-(6-azaspiro[2.5]octane-6-yl)-1,2-dihydro-1,7-naphthyridin-3-carbonitrile]
Vz_obs iv (apparent distribution volume) ([1]; intravenous bolus 1 mg/kg, n = 3): 7.06 L/kg | Tmax ([1]; dog, plasma, po, intragastric 2 mg/kg, n = 3, median): 0.5 h | AUC(0-inf) ([1]; dog, plasma, po, intragastric 2 mg/kg, n = 3, read-out: AUCinf po): 4450 ng·h/mL | half-life ([1]; dog, plasma, po, intragastric 2 mg/kg, n = 3, read-out: tz1/2 po (terminal elimination half-life) (converted)): 9.45 h | bioavailability ([1]; dog, plasma, dose iv/po 1/2 mg/kg, n = 3): 99.1% | AUC(0-inf) ([1]; dog, plasma, intravenous bolus 1 mg/kg, n = 3, read-out: AUCinf iv): 2240 ng·h/mL | clearance ([1]; dog, plasma, intravenous bolus 1 mg/kg, n = 3, read-out: Cl_obs iv (clearance rate) (converted)): 7.83 mL/min/kg | half-life ([1]; dog, plasma, intravenous bolus 1 mg/kg, n = 3, read-out: tz1/2 iv (terminal elimination half-life) (converted)): 10.4 h | Tmax ([2]; po, intragastric 5 mg/kg, median): 1 h | AUC(0-t) ([2]; po, intragastric 5 mg/kg, read-out: AUClast po): 2050 ng·h/mL | half-life ([2]; po, intragastric 5 mg/kg, read-out: tz1/2 po (terminal elimination half-life) (converted)): 1.4 h | bioavailability ([2]; dose iv/po 1/5 mg/kg, read-out: F % (absolute bioavailability)): 74.2% | IC50 (PDE1A1 Enzyme): > 3000 nM | IC50 (PDE3A Enzyme): > 3000 nM | IC50 (PDE5A1 Enzyme): > 3000 nM | IC50 (PDE8A1 Enzyme): > 3000 nM | Original drug residual % at 60 min [3]: 87.5% | k [3]: 0.0022 min⁻¹ | CLint ([3]; microsomes): 0.0044 mL · min^−1 · mg^−1 proteins | Vz_obs iv (apparent distribution volume) [4]: 1.27 L/kg | AUC(0-t) ([4]; male, Sprague-Dawley, plasma, read-out: AUClast iv): 574 ng·h/mL | clearance ([4]; male, Sprague-Dawley, plasma, read-out: Cl_obs iv (clearance rate) (converted)): 29.3 mL/min/kg | half-life ([4]; male, Sprague-Dawley, plasma, read-out: tz1/2 iv (terminal elimination half-life) (converted)): 0.51 h | half-life (in vitro): 5.25 h

IC50 (PDE1A1 Enzyme): 4920 nM | IC50 (PDE3A Enzyme): > 10000 nM | IC50 (PDE5A1 Enzyme): > 10000 nM | IC50 (PDE8A1 Enzyme): > 10000 nM
SMILES: N#Cc1c(N2CCC3(CC2)COC3)c2ccncc2[nH]c1=O [Compound 24, 2-oxo-4-(2-oxa-7-azaspiro[3.5]nonane-7-yl)-1,2-dihydro-1,7-naphthyridin-3-carbonitrile]
